Source: patent publication US20090042993A1, “IDENTIFICATION OF NOVEL POST-TRANSLATIONAL PROTEIN MODIFICATIONS” (priority 2007, published 2009)

Tests used:
BACE1 = assay: Pulse-chase half-life of BACE1; assay type: cell-based, human; conditions: following ceramide treatment; ~16 hours without
Procedure: Confluent cells were starved for 1 hr in Met/Cys free medium, labeled with 100 μCi [^35S]-Met/Cys (Trans35S-Label, >1000 Ci/mmol; Pierce) in starvation medium/dish and chased for 8, 16, and 24 hours with DMEM supplemented with 5 mM cold Met/Cys. Cell extracts were pre-cleared with BioMag Protein A (Polysciences, Inc.). Beads were used at the concentration of 15 μl of the slurry per sample and separated with a magnetic holder. BACE1 was then immunoprecipitated with anti-BACE1 antibodies and recovered with BioMag Protein A as above. The immunoprecipitate-bead complexes were washed 3 times and boiled in sample buffer. Beads were then separated and the samples were analyzed by reducing SDS-PAGE (on a 4-12% Bis-Tris NuPAGE system) and autoradiography.
FIG. 3 illustrates how transient lysine acetylation controls both translocation along the secretory pathway and molecular stability of the nascent BACE1 protein. […] Immunoprecipitates were analyzed by SDS-PAGE and autoradiography. […] BACE1 was then immunoprecipitated as above and analyzed by reducing SDS-PAGE and autoradiography. Results are expressed as percentage of total newly-synthesized BACE1. […] BACE1 was immunoprecipitated from total cell lysates and analyzed by SDS-PAGE and autoradiography. The half-life of BACE1 from five different readings is shown in FIG. 3(C), whereas a representative radiogram is shown in FIG. 3(D). […]

[1] = system: ER membrane ATP transport; assay: ATP transport into intact ER vesicles; assay type: biochemical, Chinese Hamster; conditions: vesicles from control and ceramide-treated cells, 5 and 10 μM solute
Excerpt: Intact vesicles from the endoplasmic reticulum (ER) and the Golgi apparatus were purified on a 10-34% Iodixanol (OptiPrep; Axis-Shield, Norway) continuous gradient as described (Puglielli et al., 2001, Nat. Cell Biol. 3: 905-912). The complete migration of subcellular markers in a typical gradient is shown in Costantini et al., 2006, EMBO J. 25: 1997-2006; Puglielli et al., 2001, Nat. Cell Biol. 3: 905-912. Fractions enriched in ER and Golgi markers (also called ER or Golgi vesicles herein) were separated, pooled together, and resuspended in isotonic/cryogenic buffer (0.25 M sucrose and 10 mM Tris-HCl, pH 7.4) in the presence of protease inhibitors (Roche). Latency of ER and Golgi vesicles was determined with the glucose-6-phosphatase (Clairmont et al., 1992, J. Biol. Chem. 267: 3983-3900) and the sialyl-transferase (Puglielli and Hirschberg, 1999, J. Biol. Chem. 274: 35596-35600) methods, respectively. The purity of the preparation was further confirmed by assaying the above enzymatic activities, together with transport of CMP-sialic acid. […]
Briefly, assays were performed in 100 μl final volume (isotonic/cryogenic buffer) using 25 to 50 μg of ER/Golgi vesicles protein. […] Pellets were then dissolved in 0.6 mL of NaOH 1 N; after neutralization with 0.2 mL of 4N HCl, samples were counted by scintillation spectrometry. […]

AT-1 = AT-1 mRNA by real-time quantitative PCR in SH-SY5Y cells; assay type: cell-based, human; conditions: C6-cer 10 μM
Procedure: FIG. 15(A): SH-SY5Y cells were treated with ceramide (C6-cer; 10 μM) prior to real-time quantitative PCR. Treatment was performed as previously described (Costantini et al., 2007; Costantini et al., 2005; Puglielli et al., 2003). Results are expressed as percent of control (n=5)±S.D. of control (no treatment). Asterisk (*) indicates statistical significance. […] FIG. 15(B): a cDNA library (frontal cortex) of late-onset AD (n=5 different subjects) and age-matched controls (n=5 different subjects) was analyzed by quantitative real-time PCR. Results are expressed as percent of age-matched controls±S.D. Asterisk (*) indicates statistical significance.

With `CCCCCCCCCCCCC/C=C/[C@@H](O)[C@H](CO)NC(=O)CCCCC` [ceramide, C6-ceramide] the “half-life of native BACE1” value (BACE1) was roughly 24 h, the “ATP transport into ER vesicles” value [1] was “no apparent difference” and the “AT-1 mRNA level” value (AT-1) was “upregulated”.
